# Earlier results, collected in patent US20250108152A1, “DRUG ELUTING POLYMER COMPOSED OF BIODEGRADABLE POLYMERS APPLIED TO SURFACE OF MEDICAL DEVICE” (The General Hospital Corporation, priority 2016, published 2025).
row,fraction of intravenous dose that penetrates bone,SMILES
1,7-15%,Cc1nnc(SCC2=C(C(=O)O)N3C(=O)[C@@H](NC(=O)Cn4cnnn4)[C@H]3SC2)s1 [cefazolin]
2,5-19%,CO/N=C(\C(=O)N[C@@H]1C(=O)N2C(C(=O)O)=C(CSc3nc(=O)c(=O)[nH]n3C)CS[C@H]12)c1csc(N)n1 [ceftriaxone]

row,SMILES,fraction of intravenous dose that penetrates bone
1,CN[C@H](CC(C)C)C(=O)N[C@H]1C(=O)N[C@@H](CC(N)=O)C(=O)N[C@H]2C(=O)N[C@H]3C(=O)N[C@H](C(=O)N[C@H](C(=O)O)c4cc(O)cc(O)c4-c4cc3ccc4O)[C@H](O)c3ccc(c(Cl)c3)Oc3cc2cc(c3O[C@@H]2O[C@H](CO)[C@@H](O)[C@H](O)[C@H]2O[C@H]2C[C@](C)(N)[C@H](O)[C@H](C)O2)Oc2ccc(cc2Cl)[C@H]1O [vancomycin],5-20%
